Here are results for 14 molecules from patent US11827628B2, “Compositions and methods for inhibition of the JAK pathway” (Rigel Pharmaceuticals, Inc., priority 2005, dated 2023).

Structures can show the parent of a compound that is named as a salt.

One assay concerns IL-4 stimulated expression of CD23 in human Ramos B cells (JAK-1 and JAK-3). The assay is described as follows: Assay for Ramos B-Cell Line Stimulated with IL-4 (CD23 upregulation, FACS). In kind it is cell-based. To be noted: Homo sapiens, Ramos, Ramos B cells stimulated with IL-4, CD23 expression by FACS; read-out: IC50, Example 41. The essentials:
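Human Ramos B cells (5×10^4 per point, RPMI 5% serum) pre-incubated 1 h at 37 °C with compound or DMSO, then stimulated with IL-4 at 50 units/mL final for 20-24 h. CD23 upregulation measured by anti-CD23-PE staining and flow cytometry; IC50 derived.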
As to `CCN(CC)S(=O)(=O)c1ccc(OC)c(Nc2nc(Nc3ccc4c(c3)NC(=O)C(C)(C)O4)cc(C(=O)OC)n2)c1` [Compound X-2], the IC50 (as a rule, the midpoint of a concentration-inhibition curve) was determined as 1840 nM.

The same assay, now with this note: Homo sapiens, Ramos, Ramos B-cell line stimulated with IL-4; CD23 expression by FACS; read-out: IC50, Example 41.
As for `Cc1cc(Nc2nc(Nc3ccc(C)c(S(N)(=O)=O)c3)ncc2F)ccc1OC1CCN(C)CC1` [II-5, N2-(3-Aminosulfonyl-4-methylphenyl)-5-fluoro-N4-{3-methyl-4-[(1-methylpiperidin-4-yl)oxy]phenyl}-2,4-pyrimidinediamine], the IC50 came out at 2210 nM. Same read-out and setting: the value for `C=CC(=O)NCc1ccc(Nc2nc(Nc3ccc(S(N)(=O)=O)cc3)ncc2F)cc1` [III-44, N4-(4-Acrylamidomethylphenyl)-N2-(4-aminosulfonylphenyl)-5-fluoro-2,4-pyrimidinediamine] was 1430 nM.

Staying with this assay, now noted: Ramos B-cell line stimulated with IL-4; CD23 expression by FACS; read-out: IC50, Example 41.
For `CNS(=O)(=O)c1cc(Nc2ncc(F)c(Nc3ccc(Oc4cccnc4)cc3)n2)ccc1C` [II-13, 5-Fluoro-N2-[3-N-(methylaminosulfonyl)-4-methylphenyl]-N4-[4-(3-pyridyloxy)phenyl]-2,4-pyrimidinediamine], the concentration for half-maximal inhibition (IC50) was determined as 323 nM. Still for that read-out and setting: the value for `N#CCc1ccc(Nc2nc(Nc3ccc(S(N)(=O)=O)cc3)ncc2F)cc1` [III-3, N2-(4-Aminosulfonyl)phenyl-N4-(4-cyanomethyl)phenyl-5-fluoro-2,4-pyrimidinediamine] was 536 nM; that for `CN1CCN(S(=O)(=O)c2cccc(Nc3ncc(F)c(Nc4ccc(CC#N)cc4)n3)c2)CC1` [III-5, N4-(4-Cyanomethyl)phenyl-5-fluoro-N2-[3-(4-methylpiperazin-1-yl)sulfonyl]phenyl-2,4-pyrimidinediamine] was 4980 nM. The same measure, in the same setting: the value for `Cc1cc(CCC#N)ccc1Nc1nc(Nc2ccc(C)c(S(N)(=O)=O)c2)ncc1F` [III-23, N2-(3-Aminosulfonyl-4-methylphenyl)-N4-(4-cyanoethylene-2-methylphenyl)-5-fluoro-2,4-pyrimidinediamine] was 397 nM; that for `CCC(=O)NCc1ccc(Nc2nc(Nc3ccc(S(N)(=O)=O)cc3)ncc2F)cc1` [III-35, N2-(4-aminosulfonyl)phenyl-N4-(4-ethylcarbonylaminomethyl)phenyl-5-fluoro-2,4-pyrimidinediamine] was 1080 nM.

Take `NS(=O)(=O)c1ccc(Nc2ncc(F)c(Nc3ccc(CNC(=O)C4CC4)cc3)n2)cc1` [III-41, N2-(4-aminosulfonyl)phenyl-N4-(4-cyclopropylcarbonylaminomethyl)phenyl-5-fluoro-2,4-pyrimidinediamine]: the concentration for half-maximal inhibition (IC50) is 1010 nM. Same read-out and setting: the figure for `NC(=O)CCc1ccc(Nc2nc(Nc3ccc(S(N)(=O)=O)cc3)ncc2F)cc1` [III-49, N4-[4-(2-Aminocarboxylethylene)phenyl]-N2-(4-aminosulfonylphenyl)-5-fluoro-2,4-pyrimidinediamine] is 178 nM; for `CCn1nccc1NC(=O)Cc1ccc(Nc2nc(Nc3cccc(S(N)(=O)=O)c3)ncc2F)cc1` [III-51, N2-(3-Aminosulfonylphenyl)-N4-[(1-ethylpyrazolyl-5-aminocarbonylmethylene)phenyl]-5-fluoro-2,4-pyrimidinediamine] it is 1010 nM.

In the case of `CCC(=O)NS(=O)(=O)c1cccc(Nc2ncc(F)c(Nc3ccc(Cc4ccncc4)cc3)n2)c1` [III-68], the IC50 was found to be 3230 nM. Consider `CCN(CC)CCNS(=O)(=O)c1ccc(Nc2ncc(F)c(Nc3ccc(Cc4ccncc4)cc3)n2)cc1` [III-72, N2-[4-(2-N,N-Diethylaminoethyl)aminosulfonylphenyl)-5-fluoro-N4-[4-(4-pyridinylmethyl)phenyl]-2,4-pyrimidinediamine], for which the IC50 came out at 1950 nM.

Staying with this assay, now noted: Ramos B-cell line stimulated with IL-4; CD23 expression by FACS; sodium salt; read-out: IC50, Example 41.
On to `CCC(=O)NS(=O)(=O)c1cccc(Nc2ncc(F)c(Nc3ccc(Cc4ccncc4)cc3)n2)c1` [III-69, 5-Fluoro-N4-[4-(4-pyridinylmethyl)phenyl]-N2-[(3-N-propanamido)sulfonylphenyl)]-2,4-pyrimidinediamine sodium salt], for which the IC50 is 3320 nM.
